biological target: MAPK14 (human) (UniProt Q16539); assay: Inhibition of MAPK14 Kinase Activity
Sequence (Q16539 whole entry, looked up): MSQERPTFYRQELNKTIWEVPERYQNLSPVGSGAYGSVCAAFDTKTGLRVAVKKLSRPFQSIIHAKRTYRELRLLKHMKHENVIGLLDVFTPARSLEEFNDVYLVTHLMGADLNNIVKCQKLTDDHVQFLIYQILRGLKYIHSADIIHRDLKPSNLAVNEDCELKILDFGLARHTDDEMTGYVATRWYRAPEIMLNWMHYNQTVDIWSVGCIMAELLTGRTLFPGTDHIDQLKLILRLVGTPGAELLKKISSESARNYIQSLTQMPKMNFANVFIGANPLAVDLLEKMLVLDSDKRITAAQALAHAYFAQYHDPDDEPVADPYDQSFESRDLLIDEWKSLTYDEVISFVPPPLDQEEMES

SMILES	IC50 [µM]
Cc1cccc(C(=O)c2c(N)sc3c2ccc(=O)n3-c2ccccc2)c1	< 2
CN1CC[C@@H](Nc2sc3c(ccc(=O)n3-c3ccccc3)c2C(=O)c2ccccc2)C1	< 2
Cc1cccc(C(=O)c2c(N)sc3c2ccc(=O)n3-c2ccccc2Cl)c1	< 2
CCN1CC(Nc2sc3c(ccc(=O)n3-c3ccccc3)c2C(=O)c2ccc(F)c(C)c2)C1	< 2
CC(C)(CO)NC(=O)Nc1sc2c(ccc(=O)n2-c2ccccc2Cl)c1C(=O)c1ccccc1	< 2
CC(=O)Nc1sc2c(ccc(=O)n2CC2CC2)c1C(=O)c1ccccc1	< 2
CC(=O)Nc1sc2c(ccc(=O)n2-c2ccccc2F)c1C(=O)c1ccc(F)c(C)c1	< 2
Cc1cccc(C(=O)c2c(NC(=O)N3CCC3)sc3c2ccc(=O)n3-c2ccccc2)c1	< 2
NC1CCN(c2sc3c(ccc(=O)n3-c3ccccc3)c2C(=O)c2ccccc2)CC1	< 2
CC(C)N[C@H]1CCN(C(=O)Nc2sc3c(ccc(=O)n3-c3ccccc3)c2C(=O)c2ccccc2)C1	< 2
CC(=O)Nc1sc2c(ccc(=O)n2-c2ccccc2)c1C(=O)c1ccccc1F	< 2
CN(C)c1ccc(-n2c(=O)ccc3c(C(=O)c4ccccc4)c(N)sc32)cn1	< 2
Nc1sc2c(ccc(=O)n2-c2ccccc2)c1C(=O)c1ccc(C(F)(F)F)cc1	< 2
CN1CC(Nc2sc3c(ccc(=O)n3-c3c(F)cccc3F)c2C(=O)c2ccccc2)C1	< 2
Nc1sc2c(ccc(=O)n2-c2ccccc2)c1C(=O)c1cccc(Cl)c1	< 2
Cc1ccccc1C(=O)c1c(N)sc2c1ccc(=O)n2-c1ccccc1	< 2
CN(C)C(=O)CNc1sc2c(ccc(=O)n2-c2ccccc2)c1C(=O)c1ccccc1	< 2
CN1CC(CNc2sc3c(ccc(=O)n3-c3ccccc3)c2C(=O)c2ccccc2)C1	< 2
Cc1cccc(C(=O)c2c(NC(=O)N3CCN(C)CC3)sc3c2ccc(=O)n3-c2ccccc2)c1	< 2
CC(C)N1CCC(Nc2sc3c(ccc(=O)n3-c3ccccc3)c2C(=O)c2ccccc2)CC1	< 2
C=CCNC(=O)Nc1sc2c(ccc(=O)n2-c2ccccc2)c1C(=O)c1cccc(C)c1	< 2
CCN1CCC(NC(=O)Nc2sc3c(ccc(=O)n3-c3ccccc3)c2C(=O)c2cccc(C)c2)C1 (configuration not stated)	< 2
Cc1cccc(C(=O)c2c(NC3CCN(C(C)C)CC3)sc3c2ccc(=O)n3-c2ccccc2)c1	< 2
Cc1cc(C(=O)c2c(N[C@@H]3CCN(C)C3)sc3c2ccc(=O)n3-c2ccccc2)ccc1F	< 2
Cc1cccc(C(=O)c2c(NC3CCNCC3)sc3c2ccc(=O)n3-c2ccccc2)c1	< 2

SMILES	IC50 [µM]
CN(C)[C@H]1CCN(c2sc3c(ccc(=O)n3-c3ccccc3)c2C(=O)c2ccccc2)C1	< 2
COc1cccc(C(=O)c2c(NC(C)=O)sc3c2ccc(=O)n3-c2ccccc2)c1	< 2
CC(=O)Nc1sc2c(ccc(=O)n2-c2ccccc2)c1C(=O)c1cccc(OC(F)(F)F)c1	< 2
COc1cccc(C(=O)c2c(N)sc3c2ccc(=O)n3-c2ccccc2)c1	< 2
Cc1cc(C(=O)c2c(N)sc3c2ccc(=O)n3-c2ccccc2)ccc1F	< 2
O=C(c1ccccc1)c1c(NC(=O)[C@@H]2CCCN2)sc2c1ccc(=O)n2-c1ccccc1	< 2
O=C(c1ccccc1)c1c(NC2CCCNC2)sc2c1ccc(=O)n2-c1ccccc1 (configuration not stated)	< 2
Cc1cc(C(=O)c2c(NC3CNC3)sc3c2ccc(=O)n3-c2ccccc2)ccc1F	< 2
CC(=O)Nc1sc2c(ccc(=O)n2-c2ccccc2Cl)c1C(=O)c1ccccc1	< 2
CC(=O)Nc1sc2c(ccc(=O)n2-c2ccccc2)c1C(=O)c1ccccc1Cl	< 2
N[C@@H]1CCN(C(=O)Nc2sc3c(ccc(=O)n3-c3ccccc3)c2C(=O)c2ccccc2)C1	< 2
CC(=O)Nc1sc2c(ccc(=O)n2-c2ccccc2)c1C(=O)c1ccccc1C#N	< 2
Cc1cc(C(=O)c2c(NC(=O)NCC(C)(C)O)sc3c2ccc(=O)n3-c2ccccc2)ccc1F	< 2
CC(C)(CO)NC(=O)Nc1sc2c(ccc(=O)n2-c2ccccc2)c1C(=O)c1ccccc1	< 2
Cc1cc(C(=O)c2c(NC(=O)C3CCN(C)CC3)sc3c2ccc(=O)n3-c2ccccc2F)ccc1F	< 2
Cc1cc(C(=O)c2c(NC(=O)C3CCNCC3)sc3c2ccc(=O)n3-c2ccccc2F)ccc1F	< 2
Cc1ccc(-n2c(=O)ccc3c(C(=O)c4ccc(F)c(C)c4)c(NC4CNC4)sc32)cc1	< 2
CC(=O)Nc1sc2c(ccc(=O)n2-c2ccccc2)c1C(=O)c1cccc(F)c1	< 2
CCN1CCC(Nc2sc3c(ccc(=O)n3-c3ccccc3)c2C(=O)c2ccccc2)CC1	< 2
Nc1sc2c(ccc(=O)n2-c2ccccc2)c1C(=O)c1cccc(F)c1	< 2
Nc1sc2c(ccc(=O)n2-c2ccccc2F)c1C(=O)c1ccccc1	< 2
CC(=O)Nc1sc2c(ccc(=O)n2CC2CC2)c1C(=O)c1ccc(F)c(C)c1	< 2
CCN1CCC(C(=O)Nc2sc3c(ccc(=O)n3-c3ccccc3)c2C(=O)c2ccccc2)CC1	< 2
Cc1cc(C(=O)c2c(NC(=O)C3CCN(C)CC3)sc3c2ccc(=O)n3-c2ccccc2)ccc1F	< 2
Cc1cc(C(=O)c2c(N)sc3c2ccc(=O)n3CC2CC2)ccc1F	< 2

SMILES	IC50 [µM]
Cc1cc(C(=O)c2c(NC3CCN(C)CC3)sc3c2ccc(=O)n3-c2ccccc2)ccc1F	< 2
O=C(c1cccc(C(F)(F)F)c1)c1c(NC(=O)C2CCNCC2)sc2c1ccc(=O)n2-c1ccccc1	< 2
CC(=O)Nc1sc2c(ccc(=O)n2-c2ccccc2)c1C(=O)c1ccc(F)cc1	< 2
CCOC(=O)c1sc2c(ccc(=O)n2-c2ccccc2)c1C(=O)c1cccc(C)c1	< 2
CC(=O)Nc1sc2c(ccc(=O)n2-c2ccccc2)c1C(=O)c1cccc(C(F)(F)F)c1	< 2
CN1CCC[C@H]1C(=O)Nc1sc2c(ccc(=O)n2-c2ccccc2)c1C(=O)c1ccccc1	< 2
CCN1CCC(Nc2sc3c(ccc(=O)n3-c3ccccc3)c2C(=O)c2ccc(F)c(C)c2)CC1	< 2
Cc1ccc(-n2c(=O)ccc3c(C(=O)c4ccccc4)c(NC4CN(C)C4)sc32)cc1	< 2
N#Cc1sc2c(ccc(=O)n2-c2ccccc2Cl)c1C(=O)c1ccccc1	< 2
Cc1ccc(C(=O)c2c(N)sc3c2ccc(=O)n3-c2ccccc2)cc1C	< 2
Cc1cc(C(=O)c2c(NC(=O)N3CCN(C)CC3)sc3c2ccc(=O)n3-c2ccccc2)ccc1F	< 2
Cc1cc(C(=O)c2c(N[C@@H]3CCNC3)sc3c2ccc(=O)n3-c2ccccc2)ccc1F	< 2
Cc1cc(C(=O)c2c(NC(=O)NC(C)(C)CO)sc3c2ccc(=O)n3-c2ccccc2Cl)ccc1F	< 2
Cc1cc(C(=O)c2c(N[C@H]3CCNC3)sc3c2ccc(=O)n3-c2ccccc2)ccc1F	< 2
O=C(c1ccccc1)c1c(NC2CNC2)sc2c1ccc(=O)n2-c1ccccc1	< 2
NC(=O)c1sc2c(ccc(=O)n2-c2ccccc2)c1C(=O)c1cccc(Cl)c1	< 2
Cc1cccc(C(=O)c2c(NC(=O)N3CCC[C@@H]3CO)sc3c2ccc(=O)n3-c2ccccc2)c1	< 2
CC(=O)Nc1sc2c(ccc(=O)n2-c2ccccc2)c1C(=O)c1cccc(C)n1	< 2
CC(C)(O)CNC(=O)Nc1sc2c(ccc(=O)n2-c2ccccc2Cl)c1C(=O)c1ccccc1	< 2
CCOc1ccc(C(=O)c2c(N)sc3c2ccc(=O)n3-c2ccccc2)cc1C	< 2
CCN1CC[C@@H](NC(=O)Nc2sc3c(ccc(=O)n3-c3ccccc3)c2C(=O)c2ccc(F)c(C)c2)C1	< 2
Cc1cccc(C(=O)c2c(NC(N)=O)sc3c2ccc(=O)n3-c2ccccc2)c1	< 2
O=C(c1cccc(Cl)c1)c1c(NC(=O)C2CCNCC2)sc2c1ccc(=O)n2-c1ccccc1	< 2
CC(=O)Nc1sc2c(ccc(=O)n2-c2ccccc2)c1C(=O)c1cccc(OC(F)F)c1	< 2
Cc1cccc(C(=O)c2c(N)sc3c2ccc(=O)n3-c2ccccc2F)c1	< 2

SMILES	IC50 [µM]
Cc1cccc(C(=O)c2c(C(N)=O)sc3c2ccc(=O)n3-c2ccccc2)c1	< 2
CC(C)N1CC(Nc2sc3c(ccc(=O)n3-c3ccccc3)c2C(=O)c2ccccc2)C1	< 2
Cc1cc(C(=O)c2c(NC(=O)NC(C)(C)CO)sc3c2ccc(=O)n3-c2ccccc2)ccc1F	< 2
CN1CC(Nc2sc3c(ccc(=O)n3CC3CC3)c2C(=O)c2ccccc2)C1	< 2
Nc1sc2c(ccc(=O)n2-c2ccccc2)c1C(=O)c1cccc(Br)c1	< 2
Nc1sc2c(ccc(=O)n2-c2ccccc2)c1C(=O)c1ccc(OC(F)(F)F)cc1	< 2
Nc1sc2c(ccc(=O)n2CC2CC2)c1C(=O)c1ccccc1	< 2
Cc1cc(C(=O)c2c(NC3CNC3)sc3c2ccc(=O)n3-c2c(F)cccc2F)ccc1F	< 2
CC(=O)Nc1sc2c(ccc(=O)n2-c2ccccc2)c1C(=O)c1ccc(C)c(C)c1	< 2
Cc1cccc(C(=O)c2c(N)sc3c2ccc(=O)n3-c2ccccc2)n1	< 2
CN1CCC[C@@H](Nc2sc3c(ccc(=O)n3-c3ccccc3)c2C(=O)c2ccccc2)C1	< 2
CC(C)(CO)NC(=O)Nc1sc2c(ccc(=O)n2CC2CC2)c1C(=O)c1ccccc1	< 2
O=C(c1ccccc1)c1c(C(=O)N2CCC2)sc2c1ccc(=O)n2-c1ccccc1	< 2
CNC(=O)c1sc2c(ccc(=O)n2-c2ccccc2)c1C(=O)c1ccccc1	< 2
Nc1sc2c(ccc(=O)n2-c2ccccc2)c1C(=O)c1ccccc1OC(F)F	< 2
CN(C)[C@H]1CCN(C(=O)Nc2sc3c(ccc(=O)n3-c3ccccc3)c2C(=O)c2ccccc2)C1	< 2
Cc1cc(C(=O)c2c(NC(=O)N[C@@H]3CCN(C)C3)sc3c2ccc(=O)n3-c2ccccc2)ccc1F	< 2
O=C(c1ccccc1)c1c(N[C@@H]2CCNC2)sc2c1ccc(=O)n2-c1ccccc1	< 2
CCN1CCC(Nc2sc3c(ccc(=O)n3-c3ccccc3)c2C(=O)c2cccc(C)c2)CC1	< 2
Nc1sc2c(ccc(=O)n2-c2c(F)cccc2F)c1C(=O)c1ccccc1	< 2
O=C(c1ccccc1)c1c(N[C@@H]2CCCNC2)sc2c1ccc(=O)n2-c1ccccc1	< 2
Cc1cc(C(=O)c2c(N)sc3c2ccc(=O)n3-c2ccccc2Cl)ccc1F	< 2
